Experiments:
PRMT5 [1] = target: T1, PRMT5 (Homo sapiens, UniProt O14744); test: PRMT5 biochemical IC50 assay with SAM as cofactor; details: PRMT5, SAM as cofactor; read-out: SAM IC50
T1 construct: purchased Viva (custom protein)

[2] = tested on: HAP1 MTAP-intact cell line; test: SDMA in-cell western assay, HAP1 MTAP-intact; assay type: cell-based; details: Homo sapiens, HAP1, SDMA in-cell western, HAP1 MTAP-intact; read-out: MTAP HAP1 intact IC50
Method in brief: (§1)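 Compounds were tested in HAP1 cells differing only in MTAP status (endogenous expression versus null). Cellular SDMA levels were then measured by in-cell western, giving an IC50 in each background.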

PRMT5 [3] = target: T1, PRMT5; test: PRMT5 biochemical IC50 assay with no cofactor; details: PRMT5, no cofactor; read-out: No Cofactor/ rel IC50
Excerpt: Table 1 indicates IC50 values (μM) against PRMT5 for exemplary compounds in the presence of SAM as cofactor, with no cofactor, and with MTA as cofactor, respectively (columns 4-6). […] Ki values can be calculated from the IC50 values as described in the Examples section. As detailed in the Examples section, for the assay performed in the presence of SAM, IC50=Ki×1.5 (Ki=IC50/1.5).

[4] = tested on: HAP1 MTAP-deleted cell line; test: SDMA in-cell western assay, HAP1 MTAP-deleted; assay type: cell-based; details: for IC50: Homo sapiens, HAP1, SDMA in-cell western, HAP1 MTAP-deleted, read-out: HAP 1 MTAP deleted IC50; for MTAP intact/deleted ratio: IC50 ratio HAP1 MTAP-intact / HAP1 MTAP-deleted, SDMA in-cell western
Method in brief: as §1

PRMT5 [5] = target: T1, PRMT5; test: PRMT5 biochemical IC50 assay with MTA as cofactor; details: PRMT5, MTA as cofactor; read-out: MTA IC50
[6] = tested on: HAP1 MTAP-deleted cell line; test: Viability assay, MTAP-deleted cell line; assay type: cell-based; details: Homo sapiens, HAP1, viability assay, MTAP-deleted cell line; read-out: HAP1 MTAP deleted viability
Excerpt: Table 1 additionally indicates IC50 values in a viability assay for the MTAP-deleted cell line (column 10), indicating the effect of treatment with compound on cell survival.

T1 sequence (O14744 whole entry): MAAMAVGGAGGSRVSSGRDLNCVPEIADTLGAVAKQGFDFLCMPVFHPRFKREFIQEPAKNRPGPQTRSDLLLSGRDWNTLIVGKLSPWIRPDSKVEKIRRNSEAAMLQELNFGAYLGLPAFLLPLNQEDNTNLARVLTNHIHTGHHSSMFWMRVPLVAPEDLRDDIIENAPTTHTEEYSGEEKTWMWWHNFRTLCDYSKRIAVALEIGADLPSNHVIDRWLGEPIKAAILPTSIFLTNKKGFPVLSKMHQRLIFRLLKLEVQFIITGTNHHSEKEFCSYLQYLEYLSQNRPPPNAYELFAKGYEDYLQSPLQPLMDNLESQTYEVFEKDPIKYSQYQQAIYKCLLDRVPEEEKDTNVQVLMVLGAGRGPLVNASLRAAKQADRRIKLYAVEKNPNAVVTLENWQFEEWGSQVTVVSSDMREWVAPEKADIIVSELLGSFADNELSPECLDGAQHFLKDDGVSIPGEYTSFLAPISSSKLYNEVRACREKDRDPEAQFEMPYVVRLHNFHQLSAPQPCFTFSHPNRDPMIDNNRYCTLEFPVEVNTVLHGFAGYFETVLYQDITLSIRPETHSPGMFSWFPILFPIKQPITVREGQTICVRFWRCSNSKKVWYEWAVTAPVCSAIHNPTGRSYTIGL
T1 sequence (Q9BQA1 whole entry partner): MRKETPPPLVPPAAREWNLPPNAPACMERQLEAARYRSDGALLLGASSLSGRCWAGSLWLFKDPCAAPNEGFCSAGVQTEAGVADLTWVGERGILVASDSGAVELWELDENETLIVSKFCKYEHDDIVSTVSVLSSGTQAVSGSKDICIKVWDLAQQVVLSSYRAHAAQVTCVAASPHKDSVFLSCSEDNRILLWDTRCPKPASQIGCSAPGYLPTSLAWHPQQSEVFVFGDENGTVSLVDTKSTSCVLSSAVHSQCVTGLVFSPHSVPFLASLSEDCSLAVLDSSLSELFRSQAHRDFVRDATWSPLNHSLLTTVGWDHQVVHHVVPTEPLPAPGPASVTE

Row | SMILES | IC50 (PRMT5 [1]) [nM] | IC50 [2] [nM] | IC50 (PRMT5 [3]) [nM] | IC50 [4] [nM] | IC50 (PRMT5 [5]) [nM] | MTAP intact/deleted ratio [4] | IC50 [6] [nM]
1 | NC(=O)c1cc(NC(=O)C(=O)N2CCCCC2c2ccccc2)cnc1N (stereo not drawn) [Compound 126, 2-Amino-5-[[2-oxo-2-(2-phenyl-1-piperidyl)acetyl]amino]pyridine-3-carboxamide] | 50 to 500 | > 1000 | > 500 | > 1000 | 50 to 500 | B (an IC50 ratio greater than or equal to 3 fold but lower than 10 fold) | > 10000
2 | Cc1cc(NC(=O)C(=O)N2CCCCC2c2cccc3scnc23)cnc1N (stereo not drawn) [Compound 129, N-(6-Amino-5-methyl-3-pyridyl)-2-[2-(1,3-benzothiazol-4-yl)-1-piperidyl]-2-oxo-acetamide] | 50 to 500 | > 1000 | > 500 | > 1000 | 50 to 500 | B (an IC50 ratio greater than or equal to 3 fold but lower than 10 fold) | > 10000
3 | Cc1cc(NC(=O)C(=O)N2CCCCC2c2cccc3c2ncn3C)cnc1N (stereo not drawn) [Compound 132, N-(6-Amino-5-methyl-3-pyridyl)-2-[2-(1-methylbenzimidazol-4-yl)-1-piperidyl]-2-oxo-acetamide] | > 500 | > 1000 | > 500 | > 1000 | 50 to 500 | B (an IC50 ratio greater than or equal to 3 fold but lower than 10 fold) | > 10000
4 | O=C(Nc1cncc(CO)c1)C(=O)N1CCCCC1c1ccccc1 (stereo not drawn) [Compound 136, N-(5-(hydroxymethyl)pyridin-3-yl)-2-oxo-2-(2-phenylpiperidin-1-yl)acetamide] | > 500 | > 1000 | > 500 | > 1000 | > 500 | C (an IC50 ratio of less than 3 fold) | > 10000
5 | Cc1cc(NC(=O)C(=O)N2CCCCC2c2cccc3ocnc23)cnc1N (stereo not drawn) [Compound 140, N-(6-Amino-5-methyl-3-pyridyl)-2-[2-(1,3-benzoxazol-4-yl)-1-piperidyl]-2-oxo-acetamide] | > 500 | > 1000 | > 500 | 100 to 1000 | > 500 | A (an IC50 ratio greater than or equal to 10 fold) | > 10000
6 | Cc1cc(NC(=O)C(=O)N2CCCCC2c2cccc3[nH]cnc23)cnc1N (stereo not drawn) [Compound 142, N-(6-Amino-5-methyl-3-pyridyl)-2-[2-(1H-benzimidazol-4-yl)-1-piperidyl]-2-oxo-acetamide] | 50 to 500 | > 1000 | > 500 | > 1000 | 50 to 500 | B (an IC50 ratio greater than or equal to 3 fold but lower than 10 fold) | > 10000

Second part, led by results:

Row | IC50 (PRMT5 [1]) [nM] | IC50 [2] [nM] | IC50 (PRMT5 [3]) [nM] | IC50 [4] [nM] | IC50 (PRMT5 [5]) [nM] | SMILES | MTAP intact/deleted ratio [4] | IC50 [6] [nM]
7 | 50 to 500 | > 1000 | > 500 | 100 to 1000 | < 50 | COc1ncc(NC(=O)C(=O)N2CCCCC2c2ccccc2)cc1C(N)=O (stereo not drawn) [Compound 138, 2-methoxy-5-(2-oxo-2-(2-phenylpiperidin-1-yl)acetamido)nicotinamide] | A (an IC50 ratio greater than or equal to 10 fold) | > 10000
8 | 50 to 500 | > 1000 | 50 to 500 | 100 to 1000 | < 50 | CC1CCC2CCCCC2N1C(=O)C(=O)Nc1cncc(C(N)=O)c1 (stereo not drawn) [Compound 144, 5-[2-(2-Methyl-decahydroquinolin-1-yl)-2-oxoacetamido]pyridine-3-carboxamide] | A (an IC50 ratio greater than or equal to 10 fold) | > 10000
9 | > 500 | > 1000 | > 500 | > 1000 | 50 to 500 | O=Cc1cncc(NC(=O)C(=O)N2CCCCC2c2ccccc2)c1 (stereo not drawn) [Compound 147, N-(5-formylpyridin-3-yl)-2-oxo-2-(2-phenylpiperidin-1-yl)acetamide] | C (an IC50 ratio of less than 3 fold) | > 10000
